Results: a melting point compilation (Tetko et al.; mined from patent text by program, amines drawn as free bases though some values may be those of a salt)

melting point [°C] | Compound
183 to 185 | Cc1noc(-c2ccc(=O)n3c2-c2sc(-c4ccccc4)cc2SCC3)n1
40 | c1ccc(OCCSCc2nnc(-c3ccc(OCCN4CCCCCC4)cc3)o2)cc1
111 to 112 | COc1ccc(N2CCN(Cc3cn4cc(Cl)ccc4n3)CC2)cc1
106 to 108 | Cc1c(-c2ccccc2)oc2c(C(=O)NCC(C)N3CCCCC3)cccc2c1=O (configuration not stated)
155 to 157 | CC(C)n1nc(-c2sc(NC(=O)CN(C)CCN(C)C)nc2-c2ccccc2)ccc1=O
149 to 152 | CCCCc1nc(Cl)c(COC)n1Cc1ccc(-c2ccccc2Cc2nnn[nH]2)cc1
79 to 82 | Brc1csc(C#Cc2ccccc2)n1
163 to 166 | Oc1cccc2c1c1cccc(Cl)c1n2Cc1ccccc1
64 to 67 | CC1(C)CCC(N2c3ccccc3Oc3ccc(C(F)(F)F)cc32)=N1
178 to 179 | CC(C=O)(CCc1c[nH]c2ccccc12)NC(=O)OC1C2CC3CC(C2)CC1C3 (configuration not stated)
250 | CN(C)c1nc(Nc2cc(C(=O)NC3CCC3)n[nH]2)c2occc2n1
213 to 214 | CC(C)C[C@H](NC(=O)Nc1cccc2ccccc12)C(=O)N[C@H]1CCOC1=O
70 to 74 | CC(C)CCSc1cc(C(=O)O)cc(S(N)(=O)=O)c1-c1ccccc1
185 to 187 | O=C(O)CCc1oc(Sc2nccn2-c2ccccc2)nc1-c1ccc(Cl)cc1
132 to 134 | COc1ccccc1NC(=O)Nc1ccc(CC(=O)OC(C)(C)C)cc1OC
83 to 86 | COC(=O)C(C)c1ccc(-c2ccccc2[N+](=O)[O-])cc1 (configuration not stated)
210 | COc1cc(NC(=O)c2csc(NC(=O)NCc3ccccc3)n2)ccc1OCC(=O)O
199 to 203 | Cc1c(CC(N)=O)c2cc(OCCCP(=O)(O)O)ccc2n1Cc1ccccc1
223 to 227 | O=C(O)c1ccc(CNS(=O)(=O)c2ccccc2)cc1

melting point [°C] | Compound
149 | Cc1cc2ccccn2c1C(=O)c1ccc([N+](=O)[O-])cc1
217 to 219 | CC(C)(C)C(=O)c1c[nH]c2ncc(-c3cccc(NS(=O)(=O)c4ccccc4)c3)nc12
80 to 81 | CCOC(=O)C(=NOC)c1ccccc1CBr
155 to 156 | O=[N+]([O-])c1cccc2nn(-c3ccccc3)nc12
114 to 116 | C=CCNC(=O)c1cnc2c(OC)cccc2c1Cl
63 to 67 | CC(=Cc1ccccc1)c1ccc2c(c1)C(C)(C)C(O)C2(C)C (configuration not stated)
294 | Cc1ccc(C=NNc2nsc3ccccc23)cc1
67 | Nc1cc2c(cc1Sc1ccccc1)CCC2
133 to 137 | CC(=O)SCC(C)C(=O)N(C(C)C(=O)O)C1CCc2ccccc21 (configuration not stated)
241 to 244 | CCN1c2ncccc2C(=O)Nc2c(C)cc(NCCO)nc21
187 to 189 | O=C1CC(c2ccccc2)Cc2[nH]ccc21 (configuration not stated)
206 to 208 | O=C(CCc1ccncc1)c1c(O)c2cccnc2n(-c2ccccc2)c1=O
144 to 146 | COc1cccc(C2(CC(=O)O)CNC(=O)C2)c1 (configuration not stated)
158 to 160 | CN1C(=O)CN(C(=O)CNC(=O)OCc2ccccc2)C(c2ccccc2)c2cc(Cl)ccc21 (configuration not stated)
120 to 123 | CC(=O)Oc1ccccc1N1CCN(CCCNC(=O)c2cccc3c(=O)c(C)c(-c4ccccc4)oc23)CC1
164 | CCCNc1c2c(nc3ccccc13)CCCC2O (configuration not stated)
240 to 242 | CCc1[nH]n(C2CCCC2)c2nc(Cc3ccc(OCc4nnn[nH]4)cc3)nc(=O)c1-2
180 to 181 | CCOC(=O)C=Cc1ccc(C(C)(C)C)c(NC(=O)CC2c3ccccc3Oc3ccccc32)c1
236 to 238 | Cc1cc(C=Cc2ccccc2O)on1

Second part, the compound before the results:

Compound | melting point [°C]
CCN(C)C1=NS(=O)(=O)c2cccc(OC)c21 | 154 to 156
CC(C)(C)OC(=O)N1CCN(c2cc(Cl)ccc2NC(=O)c2ccnc(Cl)c2)CC1 | 185 to 189
Cc1c(-c2ccc([N+](=O)[O-])cc2)sc2c1c(=O)n(-c1ccccc1)c(=O)n2Cc1c(F)cccc1F | 280 to 282
CN(c1ncnc2c1ncn2C1OC(CO)C(O)C1O)n1cccc1 (configuration not stated) | 195 to 197
COC(=O)CSC(c1ccccc1Cl)c1ccccc1Cl | 90 to 92
CCCCCCCCCCCCn1nnc(C(=NOC)C(=O)Nc2c(OC)cc(OC)cc2OC)n1 | 84 to 85
COC(=O)C1CCC2C3CCC4CC=CCC4(C)C3C(NCCC(C)C)CC12C (configuration not stated) | 150 to 152
COC1(C)CCc2cc(O)c(C(C)(C)C)cc2O1 (configuration not stated) | 115 to 117
CCCc1c(OCC=CS(=O)(=O)c2ccc(CC(=O)O)c(F)c2)ccc(C(C)=O)c1O | 249 to 251
CCOC(=O)c1c(CC(=O)O)n(-c2ccc(OC(C)C)cc2)c2ccc(Oc3ccc(C(F)(F)F)cc3)cc12 | 158
Fc1ccc(C(c2ccc(Cl)cc2Cl)C(F)n2cncn2)cc1 (configuration not stated) | 96 to 104
COc1ccc(N2CCC(=O)N(c3ccc(C)cc3)CC2)c(-c2ccc(N(C)C)cc2)n1 | 174 to 175
OC(CCC(c1ccccc1)c1ccccc1)c1cncn1Cc1ccccc1 (configuration not stated) | 160 to 168
O=[N+]([O-])c1ccc(OCC(O)COc2ccc([N+](=O)[O-])cc2)cc1 | 144 to 145
CC(=O)OC(c1nc2c(C(F)(F)F)cccc2c(O)c1C(=O)Nc1ccccn1)C(C)C (configuration not stated) | 230
COc1ccc(CNc2cc3c(Nc4ccc(Cl)c(Cl)c4)ncnc3cn2)cc1 | 209 to 211
Cc1nn(-c2c(Cl)cc(C(F)(F)F)cc2Cl)cc1C#C[Si](C)(C)C | 76 to 78
CCCCCCCCN1CCN(O)C1=O | 53.5 to 55.5
Cc1ccc(S(=O)(=O)N2CCC(NC(=O)Nc3ccc(OC(F)(F)F)cc3)CC2)cc1 | 205 to 207
CC(=N)Nc1ccc(CCc2nc(NC(C)=O)sc2Cc2ccc(S(C)(=O)=O)cc2)cc1 | 81.5 to 83

Compound | melting point [°C]
NS(=O)(=O)c1cccc(-c2cccc(-c3nc(-c4ccc(C(F)(F)F)c(F)c4)cc(C(F)(F)F)n3)c2)c1 | 228
CN(C)CCOc1ccc2cc3ncc(C#N)c(Nc4ccc(Cl)cc4Cl)c3cc2c1 | 115 to 117
CC(=O)Nc1c(-c2cc(Cl)ccc2O)c2cc(C(F)(F)F)ccc2[nH]c1=O | 222 to 224
CC(C)(C)C(=O)N1CC=C(C#Cc2ccc3c(c2)NC(=O)CC(c2cccc(C#N)c2)=N3)CC1 | 219
Cc1nc2c(s1)Cc1cc(Cl)ccc1-2 | 94
CNC(=O)C(=NOC)c1ccccc1COc1ncc(C)cc1C(=O)OC(C)C | 165 to 166
CNC(=S)c1c(C(F)(F)F)nc(C(F)F)c(C(=O)OC)c1NC(C)C | 129 to 131
CC(=O)c1ccc2c(c1)ncn2-c1cccc(-n2ccnc2)c1 | 205 to 206
Cc1cccc(SCn2cc(Cl)cnc2=O)c1 | 134
CCc1cccc(CC(=O)O)c1OCCCc1cn(Cc2nc(-c3ccccc3)oc2C)nc1C(C)C | 94 to 95
Cc1noc(NS(=O)(=O)c2ccccc2-c2ccc(-c3cocn3)cc2)c1C | 85 to 93
O=C(N=CN1CCCCC1)C(O)(C(=O)N=CN1CCCCC1)c1ccc(Cl)c(Cl)c1 (configuration not stated) | 195
O=C(Nc1ccc(Oc2cncc(Cl)c2)nc1)c1ccccc1C(c1ccc(O)cc1)c1ccc(O)cc1 | 122 to 125
COc1nc2cc([N+](=O)[O-])c(C)c(C(=O)Cl)c2nc1OC | 162 to 164
NC(=CC(=O)C1CC1)c1ccncc1 | 159 to 166
COc1ccc2c(c1)OCN(CCO[N+](=O)[O-])C2=O | 97 to 99
CC(C)N(CC(O)(Cn1cncn1)c1ccc(Cl)cc1Cl)S(C)(=O)=O (configuration not stated) | 132 to 133
COc1ccc(Cl)cc1C1(F)C(=O)Nc2c(C(F)(F)F)cccc21 (configuration not stated) | 230 to 233
CCOC(=O)c1cnc2scc(C)c2c1O | 189 to 192
O=C(CCS)N[C@@H](Cc1ccc(O)c(O)c1)C(=O)O | 89 to 91

Compound | melting point [°C]
CNS(=O)(=O)Cc1cc(Br)c(N)c(Br)c1 | 155 to 157
CCOC(=O)C1(C)Cc2cc(Cl)cc([N+](=O)[O-])c2O1 (configuration not stated) | 69 to 72.5
N#Cc1ccc(N2CCCC2)c2ccccc12 | 109 to 110
N#Cc1ccc(-c2cc(-c3cc(C#N)ccc3Cl)on2)cc1 | 207 to 209
C[C@@H]1Cc2ccsc2[C@H](C)N1CCNS(=O)(=O)c1ccc(N)cc1 (relative stereo) | 126 to 131
COc1ccc(-c2nc3n(c2-c2ccc(OC)cc2)C(F)C(F)(F)S3)cc1 (configuration not stated) | 160 to 162
CCCCCCn1nc(-c2ccc(C(F)(F)F)cc2)cc1CCC(=O)c1ccc(OCC(=O)O)c(C)c1 | 118 to 123
CN(C)CC(=O)N1CCN(Cc2ccc3c(c2)Cc2c(-c4cccs4)n[nH]c2-3)CC1 | 193 to 197
Cn1nc(O)c(Cl)c1C(F)(F)F | 136 to 140
CCOC(=O)C1=C(C)NC(C)=C(C(=O)OCC)C1c1ncccc1O | 238 to 239
CC1=NCN(c2csc(Br)c2)O1 | 72 to 73
CCn1c(C(C)NS(=O)(=O)c2ccc(Cl)c(Cl)c2)cnc1Oc1ccc2cc[nH]c2c1 (configuration not stated) | 150 to 154
CCCN(CC(=O)NC12CC3CC(CC(C3)C1)C2)C(=O)NCCCc1ccncc1 | 132
CCc1nc(/C=C/c2cn(-c3ccccc3)nc2OCc2ccc(OCc3nc(-c4cccc(C(=O)O)c4)oc3C)c(OC)c2)cs1 | 190 to 191
Cc1c(NC(=O)CC(C)(C)C)c(C)c2c(c1-c1ccco1)OC[C@@H]2c1ccc(C(C)C)cc1 | 214 to 217
COc1ccc(Oc2nc(Nc3cccc(C(=O)O)c3)nc(Oc3ccc(C=O)cc3OC)n2)cc1 | 180 to 182
Cc1ccc(-c2ccc3c(c2)C=C(C(=O)Nc2ccc(CN(C)C4CCOCC4)cc2)CCO3)cc1 | 162 to 163
O=C1CCC(O)(c2ccc(F)cc2)CC1 | 108 to 114
O=c1[nH]c2ccc(-c3cccnc3)cc2cc1Br | 297 to 300
